# Test results taken from patent US12458587B2, “Hypoallergenic composition for skin regeneration or skin soothing, containing culture product or extract of Aureobasidium pullulans strain” (AMOREPACIFIC CORPORATION, priority 2018, dated 2025).
# Columns and labels:
# keratinocytes (HaCaT) = assay: Scratch wound healing on keratinocyte monolayer (skin-regenerating effect); type: cell-based, human; settings: relative to scratched area as 100%, 12 ppm (positive control 10% FBS), n=4
# Experimental: A linear scratch wound was made on a monolayer of keratinocytes (HaCaT). The HaCaT cells were cultured using Dulbecco's modified Eagle's medium (DMEM, Lonza, USA) containing 10% fetal bovine serum (FBS, GIBCO, USA) in a 5% CO2 incubator at 37° C. Immediately after the application of a scratch, the medium was replaced with a fresh medium containing the sample to be tested and the effect of the test sample on skin regeneration was investigated. The regeneration of the cells on the scratched area was imaged with a time-lapse microscope for 36 hours with 30-minute intervals and wound healing area (%) was compared relative the scratched area (as 100%) (n=4 per group).
# rabbit eye = settings: 5%; cited from earlier work
Substance,Wound healing area (%) 12 hours later (keratinocytes (HaCaT)),Wound healing area (%) 24 hours later (keratinocytes (HaCaT)),Wound healing area (%) 36 hours later (keratinocytes (HaCaT)),Wound healing area (%) Immediately after scratching (keratinocytes (HaCaT)),eye irritation in the Draize rabbit eye test (rabbit eye)
Madecassoside,33.56%,54.56%,62.48%,0%,–
sodium magnesium lauryl-myristyl-6-ethoxy-sulfate [Texapon Asv®],–,–,–,–,moderate irritation
